According to ChEMBL document CHEMBL1201862, “PubChem BioAssay data set” (2004):
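Where inhibition never reached the appropriate level, the endpoint shown equals the highest concentration tested. Otherwise, values were interpolated linearly from a five-concentration, 48-hour dose response in 96-well plates. GI50 marks 50% less growth.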 Active and inactive are the calls of the source. No stated cut-off is given here; in the data, active = GI50 up to about 1.1 µM and inactive = higher.

Columns and labels:
Assay in all cases: NCI anticancer screen, dose series, 48 h
M14 = tested on: M14
CAKI-1 = tested on: CAKI-1
786-0 = tested on: 786-0
SF-539 = tested on: SF-539
TK-10 = tested on: TK-10
SR = tested on: SR
SW-620 = tested on: SW-620
RPMI-8226 = tested on: RPMI-8226
EKVX = tested on: EKVX
KM12 = tested on: KM12
UO-31 = tested on: UO-31
NCI-H460 = tested on: NCI-H460
A498 = tested on: A498
K562 = tested on: K562
SF-295 = tested on: SF-295
RXF 393 = tested on: RXF 393

| SMILES | GI50 (M14) | GI50 (CAKI-1) | GI50 (786-0) | GI50 (SF-539) | GI50 (TK-10) | GI50 (SR) | GI50 (SW-620) | GI50 (RPMI-8226) | GI50 (EKVX) | GI50 (KM12) | GI50 (UO-31) | GI50 (NCI-H460) | GI50 (A498) | GI50 (K562) | GI50 (SF-295) | GI50 (RXF 393) |
| --- | --- | --- | --- | --- | --- | --- | --- | --- | --- | --- | --- | --- | --- | --- | --- | --- |
| CCN(c1ccc(Br)cc1)c1c(Br)c(=O)nc2ccccn12 | > 100 µM (inactive) | 93.1 µM (inactive) | > 100 µM (inactive) | > 100 µM (inactive) | > 100 µM (inactive) | > 100 µM (inactive) | > 100 µM (inactive) | 74.5 µM (inactive) | 73.3 µM (inactive) | > 100 µM (inactive) | 35.7 µM (inactive) | > 100 µM (inactive) | > 100 µM (inactive) | 90.6 µM (inactive) | – | – |
| CN(C(=O)C12C3(C(=O)C(C)(C)C)C4C5(C#N)C3C1(C(=O)C(C)(C)C)C5C42C(=O)C(C)(C)C)C(C)(C)C (stereo not given) | > 50 µM (inactive) | 33.8 µM (inactive) | > 50 µM (inactive) | > 50 µM (inactive) | > 50 µM (inactive) | 43.8 µM (inactive) | > 50 µM (inactive) | – | 43.3 µM (inactive) | > 50 µM (inactive) | 29.6 µM (inactive) | > 50 µM (inactive) | > 50 µM (inactive) | 27.2 µM (inactive) | > 50 µM (inactive) | – |
| CN(C)C(=S)/N=c1\sn(C)/c(=N\C(=S)N(C)C)n1C | > 100 µM (inactive) | > 100 µM (inactive) | > 100 µM (inactive) | > 100 µM (inactive) | > 100 µM (inactive) | > 100 µM (inactive) | > 100 µM (inactive) | > 100 µM (inactive) | > 100 µM (inactive) | 86.1 µM (inactive) | > 100 µM (inactive) | 50.6 µM (inactive) | 65.6 µM (inactive) | 34.1 µM (inactive) | > 100 µM (inactive) | > 100 µM (inactive) |
| CC[C@@H]1NC(C(=O)OC)Cc2c1[nH]c1ccccc21 (stereo not given in full) | > 100 µM (inactive) | > 100 µM (inactive) | > 100 µM (inactive) | > 100 µM (inactive) | > 100 µM (inactive) | > 100 µM (inactive) | > 100 µM (inactive) | – | > 100 µM (inactive) | > 100 µM (inactive) | > 100 µM (inactive) | 27.9 µM (inactive) | > 100 µM (inactive) | > 100 µM (inactive) | > 100 µM (inactive) | – |
| c1cc(-c2cn3c(n2)SCC3)ccn1 | > 70.8 µM (inactive) | > 100 µM (inactive) | 20.5 µM (inactive) | > 44.9 µM (inactive) | > 100 µM (inactive) | > 100 µM (inactive) | > 25.2 µM (inactive) | > 65.5 µM (inactive) | > 68.9 µM (inactive) | > 100 µM (inactive) | > 100 µM (inactive) | > 55.3 µM (inactive) | > 100 µM (inactive) | > 31.6 µM (inactive) | > 100 µM (inactive) | – |
| CC(/C=C/C(=O)c1sc(-n2nc(-c3ccccc3)cc2-c2ccccc2)nc1C)=C\c1ccccc1 | > 10 µM (inactive) | 20.7 µM (inactive) | 96.4 µM (inactive) | 52.1 µM (inactive) | > 10 µM (inactive) | 27.2 µM (inactive) | > 10 µM (inactive) | 19.3 µM (inactive) | 5.05 µM (inactive) | 23.8 µM (inactive) | 24 µM (inactive) | 52.7 µM (inactive) | > 10 µM (inactive) | 19.9 µM (inactive) | > 10 µM (inactive) | > 10 µM (inactive) |
| COC(=O)[C@]12CC=C3O[C@@H]4OC5(CCCCC5)O[C@@H]4C3[C@@H]1C(=O)CCC2=O (stereo not given in full) | > 100 µM (inactive) | > 100 µM (inactive) | > 100 µM (inactive) | – | – | – | > 100 µM (inactive) | > 100 µM (inactive) | > 100 µM (inactive) | > 100 µM (inactive) | > 100 µM (inactive) | > 100 µM (inactive) | > 100 µM (inactive) | > 100 µM (inactive) | > 100 µM (inactive) | – |
| O=C1C2CN(Cc3ccccc3)CC1CN(CC1CC1)C2 | > 100 µM (inactive) | > 100 µM (inactive) | > 100 µM (inactive) | > 100 µM (inactive) | > 100 µM (inactive) | – | > 100 µM (inactive) | > 100 µM (inactive) | > 100 µM (inactive) | > 100 µM (inactive) | > 100 µM (inactive) | > 100 µM (inactive) | > 100 µM (inactive) | > 100 µM (inactive) | > 100 µM (inactive) | > 100 µM (inactive) |
| COc1ccc(/C=N/NS(=O)(=O)c2ccccc2)cc1 | > 100 µM (inactive) | > 100 µM (inactive) | > 100 µM (inactive) | > 100 µM (inactive) | > 100 µM (inactive) | > 100 µM (inactive) | > 100 µM (inactive) | > 100 µM (inactive) | > 100 µM (inactive) | > 100 µM (inactive) | > 100 µM (inactive) | > 100 µM (inactive) | > 100 µM (inactive) | > 100 µM (inactive) | 93.5 µM (inactive) | > 100 µM (inactive) |
| COC(=O)C(Cc1cc(OC)c(OC)c(OC)c1)(NC(=O)c1ccccc1)P(=O)(OC)OC (stereo not given) | > 100 µM (inactive) | > 100 µM (inactive) | – | > 100 µM (inactive) | > 100 µM (inactive) | > 100 µM (inactive) | > 100 µM (inactive) | > 100 µM (inactive) | > 100 µM (inactive) | > 100 µM (inactive) | > 100 µM (inactive) | > 100 µM (inactive) | > 100 µM (inactive) | > 100 µM (inactive) | > 100 µM (inactive) | > 100 µM (inactive) |
| O=C(CC1OC(O)C(Cl)=C1Cl)c1cccnc1 (stereo not given) | > 100 µM (inactive) | > 100 µM (inactive) | > 41.5 µM (inactive) | 0.359 µM (active) | > 100 µM (inactive) | > 100 µM (inactive) | – | > 34.7 µM (inactive) | > 100 µM (inactive) | > 100 µM (inactive) | > 100 µM (inactive) | > 73.5 µM (inactive) | > 100 µM (inactive) | > 100 µM (inactive) | > 100 µM (inactive) | > 100 µM (inactive) |
| C=C(CO)CC(O)c1ccccc1 (stereo not given) | > 100 µM (inactive) | – | > 100 µM (inactive) | > 100 µM (inactive) | > 100 µM (inactive) | – | > 100 µM (inactive) | > 100 µM (inactive) | > 100 µM (inactive) | > 100 µM (inactive) | > 100 µM (inactive) | > 100 µM (inactive) | > 100 µM (inactive) | > 100 µM (inactive) | > 100 µM (inactive) | > 100 µM (inactive) |
| CS(=O)(=O)N(N(CCCl)S(=O)(=O)c1ccccc1)S(C)(=O)=O | > 100 µM (inactive) | > 100 µM (inactive) | 44.7 µM (inactive) | 38.5 µM (inactive) | > 100 µM (inactive) | > 100 µM (inactive) | > 100 µM (inactive) | > 100 µM (inactive) | > 100 µM (inactive) | > 100 µM (inactive) | 76.7 µM (inactive) | 86.1 µM (inactive) | – | > 100 µM (inactive) | 88.9 µM (inactive) | > 100 µM (inactive) |
| CC(=O)NC1C(O)CC(OCCCSCCN)(C(=O)O)OC1C(O)C(O)CO (stereo not given) | > 100 µM (inactive) | > 100 µM (inactive) | – | > 100 µM (inactive) | > 100 µM (inactive) | > 100 µM (inactive) | > 100 µM (inactive) | > 100 µM (inactive) | > 100 µM (inactive) | > 100 µM (inactive) | – | > 100 µM (inactive) | > 100 µM (inactive) | – | > 100 µM (inactive) | > 100 µM (inactive) |
| O=C(O)CCCNS(=O)(=O)c1ccc2ccccc2c1 | > 100 µM (inactive) | > 100 µM (inactive) | > 100 µM (inactive) | > 100 µM (inactive) | > 100 µM (inactive) | – | > 100 µM (inactive) | > 100 µM (inactive) | > 100 µM (inactive) | > 100 µM (inactive) | > 100 µM (inactive) | > 100 µM (inactive) | > 100 µM (inactive) | > 100 µM (inactive) | > 100 µM (inactive) | > 100 µM (inactive) |
| O=C1C(c2ccccc2)=C(c2ccccc2)C(c2ccc(CCCCCCc3ccc(C4=C(c5ccccc5)C(=O)C(c5ccccc5)=C4c4ccccc4)cc3)cc2)=C1c1ccccc1 | > 100 µM (inactive) | – | > 100 µM (inactive) | > 100 µM (inactive) | > 100 µM (inactive) | – | > 100 µM (inactive) | > 100 µM (inactive) | > 100 µM (inactive) | > 100 µM (inactive) | > 100 µM (inactive) | > 100 µM (inactive) | – | > 100 µM (inactive) | > 100 µM (inactive) | 26.4 µM (inactive) |
| O=C1c2cc3c(cc2[C@@H]2NC4CCCC14O2)OCO3 (stereo not given in full) | > 100 µM (inactive) | > 100 µM (inactive) | > 100 µM (inactive) | > 100 µM (inactive) | > 100 µM (inactive) | > 100 µM (inactive) | > 100 µM (inactive) | – | > 100 µM (inactive) | > 100 µM (inactive) | > 100 µM (inactive) | > 100 µM (inactive) | > 100 µM (inactive) | > 100 µM (inactive) | > 100 µM (inactive) | > 100 µM (inactive) |
| CC(=O)OCCOCNC(=S)N/N=C/c1ccc([N+](=O)[O-])o1 | 36.6 µM (inactive) | – | > 100 µM (inactive) | 43.9 µM (inactive) | > 100 µM (inactive) | – | 34.5 µM (inactive) | – | > 100 µM (inactive) | 57 µM (inactive) | > 100 µM (inactive) | 28.7 µM (inactive) | > 100 µM (inactive) | 37.1 µM (inactive) | 40.6 µM (inactive) | > 100 µM (inactive) |
